The values below come from patent publication US5171882A, “Leukotriene antagonists” (Eli Lilly and Company, priority 1990, dated 1992).

In assay [1] the target is T1, LTD4 receptors (Cavia porcellus, UniProt Q2NNR5).
T1 construct: A section of terminal ileum was removed, the lumen cleaned, and the tissue divided into 2.5 cm segments; from tissue; host or cells: ileum and trachea of guinea pig (ileum: male Hartley)
T1 sequence (Q2NNR5 1-340): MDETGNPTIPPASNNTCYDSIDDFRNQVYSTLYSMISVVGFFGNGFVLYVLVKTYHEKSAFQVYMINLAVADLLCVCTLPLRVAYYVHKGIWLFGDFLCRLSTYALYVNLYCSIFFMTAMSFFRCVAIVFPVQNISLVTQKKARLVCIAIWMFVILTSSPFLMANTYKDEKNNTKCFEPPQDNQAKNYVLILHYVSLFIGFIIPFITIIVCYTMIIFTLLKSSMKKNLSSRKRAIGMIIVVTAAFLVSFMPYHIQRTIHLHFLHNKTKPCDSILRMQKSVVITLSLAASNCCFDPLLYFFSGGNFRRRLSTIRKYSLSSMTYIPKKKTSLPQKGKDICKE
Nature of the assay: Antagonism of LTD4 (guinea pig ileum and trachea, pA2). As to conditions: *Estimated; negative log of KB; antagonist 30 minute incubation. The procedure: Male, Hartley guinea pigs weighing 200-450 grams were killed by decapitation. A section of terminal ileum was removed, the lumen cleaned, and the tissue divided into 2.5 cm segments. The ilea were mounted in 10 ml tissue baths containing Krebs-bicarbonate solution of the following composition in mmoles/liter: KCl, 4.6; CaCl2 ·2H2 O, 1.2; KH2 PO4, 1.2; MgSO4 ·7H2O, 1.2; NaCl, 118.2; NaHCO3, 24.8; and dextrose, 10.0. The bath fluid was maintained at 37° C. and aerated with 95 percent oxygen and 5 percent CO2 In addition, the buffer contained 1×10^-6 M atropine to reduce ileal spontaneous activity. Isometric measurements were made with a Grass FT03C. force-displacement transducer and recorded on a Grass polygraph as change in grams of force. A passive force of 0.5 g was applied to the tissues. After an appropriate equilibration period, single submaximal control responses to pure LTD4 were obtained. Following a five minute exposure of the ileum to an experimental drug, the control concentration of LTD4 was added to the tissue bath. The response of the ileum to LTD4 in the presence of the drug was compared to the response in the absence of the drug.
A more detailed analysis of LTD4 antagonism was then made. In these experiments, cumulative concentration-response curves were obtained to LTD4 in guinea pig ileum and trachea. This was followed by a 30 minute incubation with various concentrations of the experimental drug. The concentration response curve to LTD4 was then repeated in the presence of the antagonist. Only one concentration of antagonist was used on a single tissue. KB values were calculated by the method of Furchgott [Ann. N.Y. Acad. Sci., 139, 553 (1967)] using the following equation. [formula]
Dose ratio refers to the concentration of agonist required to elicit 50 percent of the maximal response ED50) in the presence of the antagonist divided by the ED50 in the absence of the antagonist.

For assay [2], the system named is LTB4 induced cell aggregation (neutrophils). Nature of the assay: LTB4 Induced Aggregation Assay (neutrophils). Format: cell-based, guinea pig. To be noted: Cavia porcellus, Neutrophil; for inhibition at 10 µM: drug concentration 10^-5 M; for inhibition at 1 µM: drug concentration 10^-6 M; for inhibition at 0.1 µM: drug concentration 10^-7 M. The procedure: Neutrophils were elicited by intraperitoneally injecting 20 ml of Dulbecco's calcium and magnesium deficient phosphate buffered saline (PBS) containing 2% oyster glycogen into each of two male Hartley guinea pigs. Eighteen hours later, cells accumulating in the peritoneal cavity were harvested by washing the peritoneum with approximately 100 ml of PBS containing 10 units/ml of heparin. The cells were centrifuged at 200 g for 8 min. and the supernatant fluid discarded. Erythrocytes present in the pellet were lyzed by vigorous agitation of the cells in 9 ml of ice-cold distilled water for approximately 30 seconds. Physiological osmolarity was restored by adding 1.5 ml of 0.6 M KCl. Twelve milliliters of PBS were added and the resuspended cells centrifuged at 200 g for 8 min. at 4°. The pellet was resuspended in 5 ml PBS. The cell concentration was determined and additional buffer added to make the concentration […]; cells per ml.
The aggregation assay was carried out by measuring the amount of LTB4 induced cell aggregation with a Payton single channel aggregometer, model 300B. The apparatus was calibrated by placing a cuvette containing the cell suspension in it and adjusting the zero knob so that the recorder pen rested at 1 mV. A cuvette containing 20% less cells was then inserted into the aggregometer and the output knob adjusted so that the recorder pen rested at 9 mV. With these settings an 8 mV change causes the recorder pen to move 200 mm. When conducting an assay, 0.5 ml of cell suspension (5×10^6 cells) was added to each cuvette. Five microliters of a solution of test compound were then added. Most compounds were initially dissolved in DMSO at 1×10^-2 M and then diluted appropriately with PBS so that the test compound concentration was 1×10^-5 to 1×10^-7 M and the test DMSO concentration was 0.1% or less. A few of the more water insoluble compounds were first dissolved in DMSO at 1 to 6×10^-3 M and then diluted appropriately with PBS. The test concentration of DMSO was never higher than 1%. After a 2 minute equilibration period of cells and test compound, 5 μl of a solution containing CaCl2 (100 mM) and MgCl2 (50 mM) were added. One minute later, 5 μ l of PBS containing LTB4 (3×10^-7 M) were added. The change occurring in the amount of light transmitted during the subsequent minute was measured. […] During a typical experiment, several measurements of the amount of aggregation induced by LTB4 were made and an average value determined. The effect of a test compound on this aggregation was determined by the following formula: [formula]

Assay [3] addresses T2, specific receptor on the membrane of human neutrophils (leukotriene B4) (Homo sapiens, UniProt Q15722).
T2 construct: Freshly-prepared buffy coat layers from two individuals were obtained from a local blood donor center; endogenous in cells; host or cells: intact human peripheral blood neutrophils from buffy coats of two donors
Nature of the assay: Inhibition of Binding of ^3 H-LTB4 to Peripheral Human Neutrophils. As to conditions: read-out: LTB4 Binding Inhibition. The procedure:
Cells used in the assay were isolated by standard techniques of centrifugation on Ficoll-Hypaque, dextran 70 sedimentation and hypotonic lysis. The following procedure was used. Freshly-prepared buffy coat layers from two individuals were obtained from a local blood donor center. The cells were mixed and diluted to 484 ml with phosphate buffered saline containing heparin (10 units/ml) and heat-inactivated calf serum (5%). This was divided into 20 ml aliquots and the aliquots layered on top of Ficoll-Paque (12 ml). The material was then centrifuged at 500 g for 40 minutes at room temperature. The resulting upper layer of platelets and mononuclear cells was discarded. The lower layer containing erythrocytes and neutrophils was retained. Buffer was added (1 ml per 4 ml of lower layer) and the suspension mixed. For each milliliter of this mixture, 0.33 ml of 6% Macrodex was added. After stirring, the cells were allowed to sediment for 1 hour at 37° C. The resulting erythrocyte pellet was discarded and the neutrophil enriched supernatant fluid centrifuged at 500 g for 10 minutes at 4° C. Erythrocytes still present in this cell pellet were lysed by incubating the cells with 5-8 ml ice-cold distilled water for 30-45 seconds. Subsequently, the volume was made up to 50 ml by addition of ice-cold buffer and the cells resuspended. The suspension was then centrifuged at 300 g for 10 minutes at 4° C. The cells were finally resuspended at a cell density of 2×10^7 cells/ml in the assay buffer This buffer consisted of Hanks' balanced salt solution and 0.1% ovalbumin (pH 7.3).
The amount of bound ^3 H-LTB4 was then measured and compared with the amount bound in the absence of test compound. The assay was carried out in microcentrifuge tubes by adding first 10 μl test compound dissolved in DMSO, followed by adding 20 μl ^3 H-LTB4 diluted in assay buffer, and finally adding 500 μl of the cell suspension. At the end of the 10 minutes incubation, 300 μl of a mixture of dibutyl and dinonyl phthalate (7:2) were added and the tubes centrifuged for 2 minutes in a microcentrifuge. The radioactivity bound to the cell pellet was measured by scintillation spectroscopy. Appropriate corrections for nonspecific bonding of ^3 H-LTB4 were made.

The mark [4] stands for this setting: drug concentration 10^-5 M, 0.1-0.2 nM ^3 H-LTB4, 10 minutes at 4° C.
[5] abbreviates: drug concentration 10^-6 M, 0.1-0.2 nM ^3 H-LTB4, 10 minutes at 4° C.
[6] abbreviates: drug concentration 10^-7 M, 0.1-0.2 nM ^3 H-LTB4, 10 minutes at 4° C.

Molecules are shown by their SMILES. Read-outs that look alike come from different tables or passages of the source.

T2 sequence (Q15722 whole entry): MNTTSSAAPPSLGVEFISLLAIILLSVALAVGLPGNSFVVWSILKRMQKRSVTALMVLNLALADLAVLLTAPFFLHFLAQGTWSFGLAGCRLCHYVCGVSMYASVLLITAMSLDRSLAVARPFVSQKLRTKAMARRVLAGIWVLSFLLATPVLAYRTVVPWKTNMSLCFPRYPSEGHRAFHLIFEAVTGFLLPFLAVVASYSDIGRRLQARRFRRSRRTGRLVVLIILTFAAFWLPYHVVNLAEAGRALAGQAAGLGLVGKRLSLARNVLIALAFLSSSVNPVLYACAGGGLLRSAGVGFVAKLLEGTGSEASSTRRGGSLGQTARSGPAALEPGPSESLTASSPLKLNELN

As a reminder, the Kb is the equilibrium dissociation constant of an antagonist, usually derived from a functional assay. For `CCOC(=O)CCc1cc(C(=O)c2cccc(C(=O)OCC)c2)ccc1OCCCCCCc1ccc(Cl)cc1` [Example 66, 2-{[6-(4-Chlorophenyl)hexyl]oxy}-5-[3-(ethoxycarbonyl)benzoyl]benzenepropanoic acid, ethyl ester], the Kb in assay [1] is 575 nM.

The inhibition is the relative decrease from the control value, in per cent. For the molecule `CCCCCCCCCCOc1ccc(C(=O)c2cccc(C(=O)O)c2)cc1CCCC(=O)O` [Example 23, 5-(3-Carboxybenzoyl)-2-(decyloxy)benzenebutanoic acid], the inhibition at 10 µM in assay [2] was found to be 92%; in assay [3] (setting [4]), 87%. For the same molecule, the inhibition at 1 µM turned out to be 46% in assay [2] and 52% in assay [3] (setting [5]). Besides, in assay [3] (setting [6]), the inhibition at 0.1 µM is 4%.

For `CCCCCCCCCCOc1ccc(C(O)c2cccc(C(=O)O)c2)cc1CCC(=O)O` (stereo not drawn) [Example 46, 5-[(3--Carboxyphenyl)hydroxymethyl]-2-(decyloxy)benzenepropanoic acid], the inhibition at 1 µM in assay [2] amounted to 73%; in assay [3] (setting [5]) it was 55%. Further, the inhibition at 0.1 µM is 7% in assay [2] and 13% in assay [3] (setting [6]). Besides, the inhibition at 10 µM in assay [3] (setting [4]) amounted to 91%.

As for `CCCCCCCCCCOc1ccc(C(=O)c2cccc(C(=O)OCC)c2)cc1CCCC(=O)OCC` [Example 7, 2-(Decyloxy)-5-[3-(ethoxycarbonyl)benzoyl]benzenebutanoic acid, ethyl ester], in assay [1], the Kb was 158 nM.

In the case of `CCCCCCCCCCOc1ccc(C(=O)c2cccc(Cc3nnn[nH]3)c2)cc1CCC(=O)O` [Example 25, 2-(Decyloxy)-5-[3-(1H-tetrazol-5-ylmethyl)benzoyl]benzenepropanoic acid], in assay [1], the antagonist dissociation constant (Kb) was 631 nM.

Turning to `O=C(O)CCc1cc(C(=O)c2cccc(C(=O)O)c2)ccc1OCCCCCCc1ccccc1` [Example 75, 5-(3-Carboxybenzoyl)-2-[6-(phenylhexyl)-oxy]benzenepropanoic acid], the inhibition at 10 µM in assay [2] was 93%; in assay [3], 97%. In addition, the inhibition at 1 µM stood at 69% in assay [2] and 82% in assay [3] (setting [5]). The inhibition at 0.1 µM in assay [2] amounted to 15%; in assay [3] (setting [6]), 36%.

Take `O=C(O)CCc1cc(C(=O)c2cccc(C(=O)O)c2)ccc1OCCCCCCc1ccc(Cl)cc1` [Example 81, 2-{[6-(4-Chlorophenyl)hexyl]oxy}-5-(3-carboxybenzoyl)benzenepropanoic acid]: the inhibition at 10 µM worked out at 76% in assay [2] and 106% in assay [3] (setting [4]). Further, the inhibition at 1 µM was determined as 63% in assay [2] and 91% in assay [3] (setting [5]). Also, the inhibition at 0.1 µM came to 8% in assay [2] and 42% in assay [3] (setting [6]).

For the molecule `C=C(c1cccc(C(=O)O)c1)c1ccc(OCCCCCCCCCC)c(CCC(=O)O)c1` [Example 54, 5-[1-(3-Carboxyphenyl)ethenyl]-2-(decyloxy)benzenepropanoic acid], the inhibition at 1 µM in assay [2] worked out at 88%; in assay [3] (setting [5]) it was 37%. Further, the inhibition at 0.1 µM in assay [2] is 12%; in assay [3] (setting [6]) it was -3%. In assay [3] (setting [4]), the inhibition at 10 µM came to 71%.

Turning to `COc1ccc(C=CCCCCOc2ccc(C(=O)c3cccc(C(=O)O)c3)cc2CCC(=O)O)cc1` [Example 79, 5-(3-Carboxybenzoyl)-2-{[6-(4-methoxyphenyl)-5-hexenyl]oxy}benzenepropanoic acid], in assay [2], the inhibition at 10 µM was 92%, the inhibition at 1 µM came out at 87% and the inhibition at 0.1 µM was found to be 46%. Besides, in assay [3], the inhibition at 0.1 µM amounted to 92%, the inhibition at 1 µM was 97% and the inhibition at 10 µM was 100%.

For the molecule `CCCCCCCCCCOc1ccc(C(O)c2ccc(C(=O)O)cc2)cc1CC(=O)O` (stereo not drawn) [Example 47, 5-[(4-Carboxyphenyl)hydroxymethyl]-2-(decyloxy)benzeneacetic acid], in assay [2], the inhibition at 10 µM came to 80%, the inhibition at 1 µM came to 50% and the inhibition at 0.1 µM came out at 2%. Further, the inhibition at 10 µM in assay [3] (setting [4]) worked out at 59%. Moreover, the inhibition at 1 µM in assay [3] (setting [5]) turned out to be 2%.

In the case of `C[S+]([O-])c1ccc(C=CCCCCOc2ccc(C(=O)c3cccc(C(=O)O)c3)cc2CCC(=O)O)cc1` (stereo not drawn) [Example 90, 5-(3-Carboxybenzoyl)-2-{[6-(4-methylsulfinylphenyl)-5-hexenyl]oxy}benzenepropanoic acid], the inhibition at 10 µM in assay [2] was found to be 85%; in assay [3] (setting [4]) it was 98%. Also, the inhibition at 1 µM in assay [2] is 79%; in assay [3] (setting [5]), 96%. The inhibition at 0.1 µM in assay [2] turned out to be 9%; in assay [3] (setting [6]), 90%.

For the molecule `CCCCCCCCCCOc1ccc(C(=O)Cc2ccccc2C(=O)O)cc1CCC(=O)O` [Example 34, 5-[(2-Carboxyphenyl)acetyl]-2-(decyloxy)benzenepropanoic acid], the antagonist dissociation constant (Kb) in assay [1] was 1910 nM.
